What all share (type): biochemical
The target in one assay is T1, Mt-DdRP (Homo sapiens, UniProt O00411).
T1 construct: gene POLRMT; expressed in E. coli from pRP009, Ni-, heparin and S-sepharose purified; in assembled elongation complex
Nature of the assay: single-nucleotide addition, denaturing PAGE. The note with it: elongation complex, 100 μM analog, 1 min, 10 mM MgCl2, pH 7.5, 25 °C.

The target of assay [1] is T2, Ec-DdRP (Escherichia coli, UniProt P0A8T7+P0A8V2).
T2 construct: gene rpoB; multisubunit RNAP without added sigma, in assembled elongation complex; expressed in E. coli T7 Express from pVS10, Ni-, heparin and Q-sepharose purified; with DNA-directed RNA polymerase subunit alpha; DNA-directed RNA polymerase subunit omega

The target of assay [2] is T2, Ec-DdRP. This is another data set of the same source.
[3] abbreviates: elongation complex, FOR as A-substitute (incorporation rate 27 s^-1), 10 mM MgCl2, pH 7.5, 25 °C.

The values that follow come from publication PMC11474200, “Probing the nucleobase selectivity of RNA polymerases with dual-coding substrates” (The Journal of Biological Chemistry, 2024).

For orientation: kon means the rate constant with which the complex forms. A lower kon goes with slow association. A word on the koff: it is the first-order rate constant of dissociation. Read a high koff as a short-lived complex.

Read-outs that look alike come from different tables or passages of the source.

T2 sequence (P0A7Z4 whole entry): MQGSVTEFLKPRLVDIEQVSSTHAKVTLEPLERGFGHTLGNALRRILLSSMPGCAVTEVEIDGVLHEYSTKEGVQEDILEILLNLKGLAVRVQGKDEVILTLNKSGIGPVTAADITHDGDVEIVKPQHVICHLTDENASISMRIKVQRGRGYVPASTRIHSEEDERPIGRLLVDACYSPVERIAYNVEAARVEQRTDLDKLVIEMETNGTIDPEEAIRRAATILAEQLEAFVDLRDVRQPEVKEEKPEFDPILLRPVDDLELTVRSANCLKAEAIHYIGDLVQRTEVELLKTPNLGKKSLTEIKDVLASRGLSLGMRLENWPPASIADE
T2 sequence (P0A8T7 whole entry): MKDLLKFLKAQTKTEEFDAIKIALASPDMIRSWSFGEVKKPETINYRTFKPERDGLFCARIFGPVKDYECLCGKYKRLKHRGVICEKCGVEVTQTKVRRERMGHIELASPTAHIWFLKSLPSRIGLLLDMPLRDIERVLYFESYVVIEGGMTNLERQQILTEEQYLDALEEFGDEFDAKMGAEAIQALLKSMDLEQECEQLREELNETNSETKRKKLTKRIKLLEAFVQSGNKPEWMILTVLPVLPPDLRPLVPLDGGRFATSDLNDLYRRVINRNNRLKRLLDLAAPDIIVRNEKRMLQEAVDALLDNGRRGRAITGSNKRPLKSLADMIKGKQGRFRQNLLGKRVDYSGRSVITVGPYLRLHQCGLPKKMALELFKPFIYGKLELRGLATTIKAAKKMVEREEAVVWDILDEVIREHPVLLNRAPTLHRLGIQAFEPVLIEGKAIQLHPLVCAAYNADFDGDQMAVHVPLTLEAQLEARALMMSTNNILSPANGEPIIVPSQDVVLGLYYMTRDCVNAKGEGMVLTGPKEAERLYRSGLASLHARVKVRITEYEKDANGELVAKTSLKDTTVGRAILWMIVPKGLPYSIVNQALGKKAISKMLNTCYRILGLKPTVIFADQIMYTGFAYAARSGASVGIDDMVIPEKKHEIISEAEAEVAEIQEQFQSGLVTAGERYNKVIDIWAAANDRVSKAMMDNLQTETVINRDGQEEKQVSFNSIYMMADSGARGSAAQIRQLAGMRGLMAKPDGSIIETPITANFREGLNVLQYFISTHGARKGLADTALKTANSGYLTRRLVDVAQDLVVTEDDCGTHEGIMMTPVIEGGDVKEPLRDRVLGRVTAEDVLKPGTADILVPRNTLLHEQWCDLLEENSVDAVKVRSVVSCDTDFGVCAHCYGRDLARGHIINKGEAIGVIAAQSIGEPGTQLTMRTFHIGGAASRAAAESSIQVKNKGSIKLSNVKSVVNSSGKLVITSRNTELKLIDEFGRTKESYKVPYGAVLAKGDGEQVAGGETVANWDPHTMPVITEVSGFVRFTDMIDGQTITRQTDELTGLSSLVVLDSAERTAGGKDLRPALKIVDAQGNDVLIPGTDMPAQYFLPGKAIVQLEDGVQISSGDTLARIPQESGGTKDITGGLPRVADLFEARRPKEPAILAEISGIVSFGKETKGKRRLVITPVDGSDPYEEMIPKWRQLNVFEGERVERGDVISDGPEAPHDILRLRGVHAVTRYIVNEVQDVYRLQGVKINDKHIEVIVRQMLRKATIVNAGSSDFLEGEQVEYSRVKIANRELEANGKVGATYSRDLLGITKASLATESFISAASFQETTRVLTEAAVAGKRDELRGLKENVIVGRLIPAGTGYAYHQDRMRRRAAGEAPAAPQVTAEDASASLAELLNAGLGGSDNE
T2 sequence (P0A8V2 whole entry): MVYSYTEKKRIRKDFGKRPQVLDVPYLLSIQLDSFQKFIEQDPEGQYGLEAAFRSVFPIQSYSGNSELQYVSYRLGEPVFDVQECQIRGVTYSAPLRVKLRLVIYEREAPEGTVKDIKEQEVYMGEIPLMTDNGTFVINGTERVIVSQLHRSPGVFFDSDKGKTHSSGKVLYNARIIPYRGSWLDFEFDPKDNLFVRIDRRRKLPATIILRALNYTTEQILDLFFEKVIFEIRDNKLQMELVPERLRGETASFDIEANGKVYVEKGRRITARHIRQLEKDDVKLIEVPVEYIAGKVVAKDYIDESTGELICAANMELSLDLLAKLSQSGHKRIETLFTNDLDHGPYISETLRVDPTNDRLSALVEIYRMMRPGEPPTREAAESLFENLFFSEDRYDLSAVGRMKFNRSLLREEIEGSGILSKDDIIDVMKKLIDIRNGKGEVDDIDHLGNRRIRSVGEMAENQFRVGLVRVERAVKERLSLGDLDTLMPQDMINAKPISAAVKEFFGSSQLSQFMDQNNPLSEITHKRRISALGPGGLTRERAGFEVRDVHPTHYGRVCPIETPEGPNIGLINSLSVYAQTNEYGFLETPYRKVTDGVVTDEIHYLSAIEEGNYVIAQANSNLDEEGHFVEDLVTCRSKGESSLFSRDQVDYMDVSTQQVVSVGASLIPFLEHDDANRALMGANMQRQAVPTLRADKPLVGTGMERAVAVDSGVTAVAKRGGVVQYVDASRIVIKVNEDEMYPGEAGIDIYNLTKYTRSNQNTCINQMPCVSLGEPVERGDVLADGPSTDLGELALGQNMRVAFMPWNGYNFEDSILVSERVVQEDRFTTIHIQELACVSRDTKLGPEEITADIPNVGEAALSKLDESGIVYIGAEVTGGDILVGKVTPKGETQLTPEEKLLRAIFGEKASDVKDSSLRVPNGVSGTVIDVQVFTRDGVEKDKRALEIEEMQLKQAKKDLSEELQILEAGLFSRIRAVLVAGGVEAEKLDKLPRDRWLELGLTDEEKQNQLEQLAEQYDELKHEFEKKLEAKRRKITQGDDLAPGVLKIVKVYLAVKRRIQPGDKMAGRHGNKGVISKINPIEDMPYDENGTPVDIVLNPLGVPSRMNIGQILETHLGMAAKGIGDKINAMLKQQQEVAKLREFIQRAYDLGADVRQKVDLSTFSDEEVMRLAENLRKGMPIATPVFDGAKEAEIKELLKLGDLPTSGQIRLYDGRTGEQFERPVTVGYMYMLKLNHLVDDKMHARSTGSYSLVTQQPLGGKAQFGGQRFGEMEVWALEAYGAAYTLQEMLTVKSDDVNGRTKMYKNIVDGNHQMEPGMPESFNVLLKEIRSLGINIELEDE
T2 sequence (P0A800 2-91, further chain): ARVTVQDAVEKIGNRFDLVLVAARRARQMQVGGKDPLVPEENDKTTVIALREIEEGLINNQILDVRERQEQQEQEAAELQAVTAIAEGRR
T1 sequence (O00411 42-1230): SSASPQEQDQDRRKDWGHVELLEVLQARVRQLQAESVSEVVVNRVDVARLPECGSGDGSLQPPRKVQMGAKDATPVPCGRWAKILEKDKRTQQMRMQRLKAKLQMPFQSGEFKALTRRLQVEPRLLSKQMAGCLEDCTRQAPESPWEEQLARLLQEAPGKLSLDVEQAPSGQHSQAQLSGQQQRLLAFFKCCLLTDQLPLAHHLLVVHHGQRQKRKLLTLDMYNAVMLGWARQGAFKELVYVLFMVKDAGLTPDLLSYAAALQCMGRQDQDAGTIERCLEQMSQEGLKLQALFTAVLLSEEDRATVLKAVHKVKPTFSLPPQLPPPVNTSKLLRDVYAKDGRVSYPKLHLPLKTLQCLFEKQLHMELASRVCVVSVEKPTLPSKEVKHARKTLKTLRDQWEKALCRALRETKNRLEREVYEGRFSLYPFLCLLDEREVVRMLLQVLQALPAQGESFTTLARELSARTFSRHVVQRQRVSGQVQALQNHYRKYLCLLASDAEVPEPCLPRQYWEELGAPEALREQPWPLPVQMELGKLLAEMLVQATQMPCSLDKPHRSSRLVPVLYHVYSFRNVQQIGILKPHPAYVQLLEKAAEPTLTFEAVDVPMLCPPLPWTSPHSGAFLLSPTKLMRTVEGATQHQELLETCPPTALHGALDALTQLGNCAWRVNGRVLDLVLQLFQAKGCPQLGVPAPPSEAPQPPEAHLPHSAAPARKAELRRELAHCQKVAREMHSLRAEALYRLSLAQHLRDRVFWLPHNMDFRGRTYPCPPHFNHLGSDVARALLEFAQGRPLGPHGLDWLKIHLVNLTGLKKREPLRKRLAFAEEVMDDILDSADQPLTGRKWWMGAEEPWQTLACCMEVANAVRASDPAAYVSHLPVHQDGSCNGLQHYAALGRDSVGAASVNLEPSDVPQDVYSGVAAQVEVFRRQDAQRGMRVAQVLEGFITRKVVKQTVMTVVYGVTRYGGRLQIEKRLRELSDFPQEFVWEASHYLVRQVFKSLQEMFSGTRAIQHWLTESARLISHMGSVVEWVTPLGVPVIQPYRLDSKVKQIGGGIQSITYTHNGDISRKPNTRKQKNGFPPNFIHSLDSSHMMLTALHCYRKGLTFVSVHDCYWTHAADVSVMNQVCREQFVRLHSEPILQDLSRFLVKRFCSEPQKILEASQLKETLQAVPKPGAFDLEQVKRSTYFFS

On to `NC(=O)c1[nH]nc([C@@H]2O[C@H](COP(=O)(O)OP(=O)(O)OP(=O)(O)O)[C@@H](O)[C@H]2O)c1O` (mixture of isomers) [PYR 5′-triphosphate], for which, at Mt-DdRP (incorporated in place of uridine), the “single-nucleotide addition, denaturing PAGE” value is on record as “all RNAPs in our set incorporated PYR in place of uridine”.
`Nc1ncnc2c([C@@H]3O[C@H](COP(=O)(O)OP(=O)(O)OP(=O)(O)O)[C@@H](O)[C@H]3O)n[nH]c12` [FOR triphosphate] displayed an on-rate (kon) at Ec-DdRP [1] (setting [3]) of 3.1e+06 to 6.6e+06 M⁻¹ s⁻¹. At Ec-DdRP [2] (setting [3]), this compound showed an off-rate constant (koff) of 74 to 220 s⁻¹. Besides, the “single-nucleotide addition, denaturing PAGE” value on Mt-DdRP (incorporated in place of adenine) is given as “FOR was incorporated in place of adenine by all RNAPs in our set”.
On Ec-DdRP [1], `Nc1ncnc2c1ncn2[C@@H]1O[C@H](COP(=O)(O)OP(=O)(O)OP(=O)(O)O)[C@@H](O)[C@H]1O` [ATP] had a kon of 1.2e+06 to 1.5e+06 M⁻¹ s⁻¹. Moreover, the off-rate (koff) on Ec-DdRP [2] was 5.6 to 19 s⁻¹.
